Assay results: patent US20240376092A1 (priority 2021, published 2024)
pIC50: −log10 of the molar value.

Tested on: HEK293 cells expressing ΔCR PrP
Test: cells
Assay type: cell-based
Set-up: Emax: dose or concentration left out as unconfirmed
Conditions: HEK293, 48 h, read-out: % RMAX: maximum rescuing effect, expressed as percentage of the effect of SM3(LD24) at the same concentration

Structure (SMILES)	Emax
C=CCNC(=O)CN1c2ccc(Br)cc2-c2ccccc2S1(=O)=O [SM164]	53.7%

Same assay, conditions: HEK293, 48 h; 1 μM; read-out: % RMAX: maximum rescuing effect, expressed as percentage of the effect of SM3(LD24) at the same concentration

Structure (SMILES)	Emax at 1 µM
O=C1C(N2c3ccc(Br)cc3-c3ccccc3S2(=O)=O)CCN1C1CCCCC1 (racemic) [SM11, (R,S)-3-(9-Bromo-5,5-dioxido-6H-dibenzo[c,e][1,2]thiazin-6-yl)-1-cyclohexylpyrrolidin-2-one]	43.9%
O=C(CN1c2ccc(Br)cc2-c2ccccc2S1(=O)=O)NC1CCCC1 [SM4, 2-(9-Bromo-5,5-dioxido-6H-dibenzo[c,e][1,2]thiazin-6-yl)-N-cyclopentylacetamide]	66.6%
O=C(CN1c2ccc(Br)cc2-c2ccccc2S1(=O)=O)NC1CCCCCC1 [SM5, 2-(9-Bromo-5,5-dioxido-6H-dibenzo[c,e][1,2]thiazin-6-yl)-N-cycloheptylacetamide]	52.8%
O=C(CN1c2ccc(Br)cc2-c2ccccc2S1(=O)=O)Nc1ccccc1 [SM6, 2-(9-bromo-5,5-dioxo-6H-dibenzo[c,e][1,2]thiazin-6 (5H)-yl)-N-phenylacetamide]	48.1%
O=C(CN1c2ccccc2-c2ccccc2S1(=O)=O)NC1CCCCC1 [SM7, 2-(5,5-dioxido-6H-dibenzo[c,e][1,2]thiazin-6-yl)-N-cyclohexylacetamide]	55.9%
CN(C(=O)CN1c2ccc(Br)cc2-c2ccccc2S1(=O)=O)C1CCCCC1 [SM8, 2-(9-Bromo-5,5-dioxido-6H-dibenzo[c,e][1,2]thiazin-6-yl)-N-cyclohexyl-N-methylacetamide]	46.2%
O=S1(=O)c2ccccc2-c2cc(Br)ccc2N1CCNC1CCCCC1 [SM9, N-[2-(9-bromo-5,5-dioxido-6H-dibenzo[c,e][1,2]thiazin-6-yl)ethyl]cyclohexanamine]	45.2%
O=C(CCN1c2ccc(Br)cc2-c2ccccc2S1(=O)=O)NC1CCCCC1 [SM10, 3-(9-Bromo-5,5-dioxido-6H-dibenzo[c,e][1,2]thiazin-6-yl)-N-cyclohexylpropanamide]	45.1%
O=C(CN1c2ccc(Br)cc2-c2ccccc2S1(=O)=O)NC1CCCCCCC1 [SM162]	71.8%
O=C(CN1c2ccc(Br)cc2-c2ccccc2S1(=O)=O)Nc1c(F)cccc1F [SM163]	104%
O=C(CN1c2ccc(Br)cc2-c2ccccc2S1(=O)=O)NC1CC1 [SM165]	65.6%
O=C(CN1c2ccc(Br)cc2-c2ccccc2S1(=O)=O)NCc1ccccc1 [SM166]	48.6%
O=C(CN1c2ccc(Br)cc2-c2ccccc2S1(=O)=O)NCc1ccco1 [SM167]	56.6%
CC(=O)c1cccc(NC(=O)CN2c3ccc(Br)cc3-c3ccccc3S2(=O)=O)c1 [SM168]	46.2%
CC(C)NC(=O)CN1c2ccc(Br)cc2-c2ccccc2S1(=O)=O [SM169]	59.1%
COCCNC(=O)CN1c2ccc(Br)cc2-c2ccccc2S1(=O)=O [SM170]	36.9%
Cc1cccc(NC(=O)CN2c3ccc(Br)cc3-c3ccccc3S2(=O)=O)c1 [SM171]	102%
O=C(CN1c2ccc(Br)cc2-c2ccccc2S1(=O)=O)NCC1CCCO1 (stereo not shown) [SM172]	40.6%
O=C(CN1c2ccc(Br)cc2-c2ccccc2S1(=O)=O)NCCC1=CCCCC1 [SM173]	66%
CC(C)CNC(=O)CN1c2ccc(Br)cc2-c2ccccc2S1(=O)=O [SM174]	56.3%
CCC(C)NC(=O)CN1c2ccc(Br)cc2-c2ccccc2S1(=O)=O (stereo not shown) [SM175]	66.2%
O=C(CN1c2ccc(Br)cc2-c2ccccc2S1(=O)=O)NCc1ccccn1 [SM176]	37.9%
CC(C)(C)NC(=O)CN1c2ccc(Br)cc2-c2ccccc2S1(=O)=O [SM177]	58.4%
O=C(CN1c2ccc(Br)cc2-c2ccccc2S1(=O)=O)NCCN1CCOCC1 [SM178]	44%
CC(C)(C)NC(=O)CN1c2ccc(Cl)cc2-c2ccccc2S1(=O)=O [SM179]	59.8%

Structure (SMILES)	Emax at 1 µM
CC(C)c1ccc2c(c1)-c1ccccc1S(=O)(=O)N2CC(=O)NC1CCCCC1 [SM180]	44%
Cc1ccc2c(c1)-c1ccccc1S(=O)(=O)N2CC(=O)NC1CCCCC1 [SM181]	59.4%
O=C(CN1c2ccc(F)cc2-c2ccccc2S1(=O)=O)NC1CCCC1 [SM219]	54%
O=C(CN1c2ccc(Br)cc2-c2ccccc2S1(=O)=O)NCCCn1ccnc1 [SM220]	51.7%
O=C(CN1c2ccc(Br)cc2-c2ccccc2S1(=O)=O)Nc1cccnc1 [SM221]	44.9%
O=C(CN1c2ccc(Br)cc2-c2ccccc2S1(=O)=O)Nc1ccc(F)cc1 [SM222]	85.1%
CC(C)C(NC(=O)CN1c2ccc(Br)cc2-c2ccccc2S1(=O)=O)C(C)C [SM223]	54.7%
O=C(CN1c2ccc(F)cc2-c2ccccc2S1(=O)=O)NC12CC3CC(CC(C3)C1)C2 [SM224]	71.5%
COc1ccc2c(c1)-c1ccccc1S(=O)(=O)N2CC(=O)NC1CCCCC1 [SM225, N-Cyclohexyl-2-(9-methoxy-5,5-dioxido-6H-dibenzo[c,e][1,2]thiazin-6-yl)acetamide]	61.5%
O=C(CN1c2ccc(O)cc2-c2ccccc2S1(=O)=O)NC1CCCCC1 [SM226, N-Cyclohexyl-2-(9-hydroxy-5,5-dioxido-6H-dibenzo[c,e][1,2]thiazin-6yl)acetamide]	37.9%
O=C(CN1c2c(Br)cccc2-c2ccccc2S1(=O)=O)NC1CCCCC1 [SM227, 2-(7-Bromo-5,5-dioxido-6H-dibenzo[c,e][1,2]thiazin-6-yl)-N-cyclohexylacetamide]	41.1%
CN(C)CCOc1ccc2c(c1)-c1ccccc1S(=O)(=O)N2CC(=O)NC1CCCCC1 [SM230, N-Cyclohexyl-2-[9-[2-(dimethylamino)ethoxy]-5,5-dioxido-6H-dibenzo[c,e][1,2]thiazin-6-yl]acetamide]	44.9%
O=C(CN1c2ccc(Cl)cc2-c2ccccc2S1(=O)=O)NC1CCCCC1 [SM254, 2-(9-chloro-5,5-dioxido-6H-dibenzo[c,e][1,2]thiazin-6-yl)-N-cyclohexylacetamide]	127%
O=C(CN1c2cc(Cl)c(F)cc2-c2ccccc2S1(=O)=O)NC1CCCCC1 [SM336, 2-(8-chloro-9-fluoro-5,5-dioxido-6H-dibenzo[c,e][1,2]thiazin-6-yl)-N-cyclohexylacetamide]	119%
O=C(CN1c2ccc(F)c(Cl)c2-c2ccccc2S1(=O)=O)NC1CCCCC1 [SM337, 2-(10-chloro-9-fluoro-5,5-dioxido-6H-dibenzo[c,e][1,2]thiazin-6-yl)-N-cyclohexylacetamide]	109%
O=C(CN1c2cc(C(F)(F)F)ccc2-c2ccccc2S1(=O)=O)NC1CCCCC1 [SM338, N-cyclohexyl-2-[5,5-dioxido-8-(trifluoromethyl)-6H-dibenzo[c,e][1,2]thiazin-6-yl]acetamide]	87.6%
O=C(CN1c2cccc(C(F)(F)F)c2-c2ccccc2S1(=O)=O)NC1CCCCC1 [SM339, N-cyclohexyl-2-[5,5-dioxido-10-(trifluoromethyl)-6H-dibenzo[c,e][1,2]thiazin-6-yl]acetamide]	112%
CSc1ccc2c(c1)-c1ccccc1S(=O)(=O)N2CC(=O)NC1CCCCC1 [SM340, N-cyclohexyl-2-[9-(methylthio)-5,5-dioxido-6H-dibenzo[c,e][1,2]thiazin-6-yl]acetamide]	23%
O=C(CN1c2cccc(Cl)c2-c2ccccc2S1(=O)=O)NC1CCCCC1 [SM585, 2-(10-chloro-5,5-dioxido-6H-dibenzo[c,e][1,2]thiazin-6-yl)-N-cyclohexylacetamide]	71.7%
O=C(CN1c2cc(Cl)ccc2-c2ccccc2S1(=O)=O)NC1CCCCC1 [SM586, 2-(8-chloro-5,5-dioxido-6H-dibenzo[c,e][1,2]thiazin-6-yl)-N-cyclohexylacetamide]	181%
O=C(CN1c2cc(Cl)cc(Cl)c2-c2ccccc2S1(=O)=O)NC1CCCCC1 [SM587, N-cyclohexyl-2-(8,10-dichloro-5,5-dioxido-6H-dibenzo[c,e][1,2]thiazin-6-yl)acetamide]	168%
O=C(CN1c2ccc(C(F)(F)F)cc2-c2ccccc2S1(=O)=O)N[C@H]1CC[C@H](O)CC1 [SM588, 2-[5,5-dioxido-9-(trifluoromethyl)-6H-dibenzo[c,e][1,2]thiazin-6-yl]-N-(trans-4-hydroxycyclohexyl)acetamide]	10.6%
O=C(CN1c2ccc(C(F)(F)F)cc2-c2ccccc2S1(=O)=O)N[C@H]1CC[C@H](OS(=O)(=O)c2ccc([N+](=O)[O-])cc2)CC1 [SM589, trans-4-({2-[5,5-dioxido-9-(trifluoromethyl)-6H-dibenzo[c,e][1,2]thiazin-6-yl]acetyl}amino)cyclohexyl 4-nitrobenzenesulfonate]	116%
Cc1n[nH]c2c1N(CC(=O)NC1CCCCC1)S(=O)(=O)c1ccccc1-2 [SM879, N-cyclohexyl-2-(3-methyl-5,5-dioxidopyrazolo[4,3-c][1,2]benzothiazin-4 (1H)-yl)acetamide]	22.5%
O=C(CN1c2ccc(C(F)(F)F)cc2-c2ccccc2S1(=O)=O)Nc1ccnc(Cl)c1 [SM880, N-(2-chloropyridin-4-yl)-2-[5,5-dioxido-9-(trifluoromethyl)-6H-dibenzo[c,e][1,2]thiazin-6-yl]acetamide]	78.3%

Same assay, conditions: HEK293, read-out: IC50 (rescuing dose at 50%)

Structure (SMILES)	pIC50
O=C(CN1c2ccc(Cl)cc2-c2ccccc2S1(=O)=O)NC1CCCCC1 [SM254, 2-(9-chloro-5,5-dioxido-6H-dibenzo[c,e][1,2]thiazin-6-yl)-N-cyclohexylacetamide]	6.52
O=C(CN1c2cc(Cl)c(F)cc2-c2ccccc2S1(=O)=O)NC1CCCCC1 [SM336, 2-(8-chloro-9-fluoro-5,5-dioxido-6H-dibenzo[c,e][1,2]thiazin-6-yl)-N-cyclohexylacetamide]	7.00
O=C(CN1c2ccc(F)c(Cl)c2-c2ccccc2S1(=O)=O)NC1CCCCC1 [SM337, 2-(10-chloro-9-fluoro-5,5-dioxido-6H-dibenzo[c,e][1,2]thiazin-6-yl)-N-cyclohexylacetamide]	6.01
O=C(CN1c2cccc(C(F)(F)F)c2-c2ccccc2S1(=O)=O)NC1CCCCC1 [SM339, N-cyclohexyl-2-[5,5-dioxido-10-(trifluoromethyl)-6H-dibenzo[c,e][1,2]thiazin-6-yl]acetamide]	6.47
O=C(CN1c2cc(Cl)ccc2-c2ccccc2S1(=O)=O)NC1CCCCC1 [SM586, 2-(8-chloro-5,5-dioxido-6H-dibenzo[c,e][1,2]thiazin-6-yl)-N-cyclohexylacetamide]	6.46
O=C(CN1c2cc(Cl)cc(Cl)c2-c2ccccc2S1(=O)=O)NC1CCCCC1 [SM587, N-cyclohexyl-2-(8,10-dichloro-5,5-dioxido-6H-dibenzo[c,e][1,2]thiazin-6-yl)acetamide]	6.22
O=C(CN1c2ccc(C(F)(F)F)cc2-c2ccccc2S1(=O)=O)N[C@H]1CC[C@H](OS(=O)(=O)c2ccc([N+](=O)[O-])cc2)CC1 [SM589, trans-4-({2-[5,5-dioxido-9-(trifluoromethyl)-6H-dibenzo[c,e][1,2]thiazin-6-yl]acetyl}amino)cyclohexyl 4-nitrobenzenesulfonate]	5.98
